Data: patent publication US11479553B2, “5-5 fused rings as C5a inhibitors” (CHEMOCENTRYX, INC., priority 2017, dated 2022)

Biological target: C5aR (Homo sapiens (Human), UniProt P21730)
Assay: Chemotaxis assay (inhibition of C5aR mediated migration toward C5a)
Assay type: cell-based
Conditions: inhibition in the chemotaxis assay (Example 14 B.3); U937 or neutrophil cells, C5a as chemoattractant
Protocol: U937 cells are a monocytic cell line which express C5aR, and are available from ATCC (VA). These cells were cultured as a suspension in RPMI-1640 medium supplemented with 2 mM L-glutamine, 1.5 g/L sodium bicarbonate, 4.5 g/L glucose, 10 mM HEPES, 1 mM sodium pyruvate, and 10% FBS. Cells were grown under 5% CO2/95% air, 100% humidity at 37° C. and subcultured twice weekly at 1:6 (cells were cultured at a density range of 1×10^5 to 2×10^6 cells/mL) and harvested at 1×10^6 cells/mL. Prior to assay, cells are treated overnight with 0.5 mM of cyclic AMP (Sigma, OH) and washed once prior to use. cAMP treated U937 cells can be used in C5aR ligand binding and functional assays.
Optionally, human or murine neutrophils can be used to assay for compound activity. Neutrophils may be isolated from fresh human blood using density separation and centrifigation. Briefly, whole blood is incubated with equal parts 3% dextran and allowed to separate for 45 minutes. After separation, the top layer is layered on top of 15 mls of Ficoll (15 mls of Ficoll for every 30 mls of blood suspension) and centrifuged for 30 minutes at 400×g with no brake. The pellet at the bottom of the tube is then isolated and resuspended into PharmLyse RBC Lysis Buffer (BD Biosciences, San Jose, Calif.) after which the sample is again centrifuged for 10 minutes at 400×g with brake. The remaining cell pellet is resuspended as appropriate and consists of isolated neutrophils.
Optionally, compounds may be further assayed for their ability to inhibit chemotaxis in cells. Chemotaxis assays are performed using 5 μm pore polycarbonate, polyvinylpyrrolidone-coated filters in 96-well chemotaxis chambers (Neuroprobe; Gaithersburg, Md.) using chemotaxis buffer (Hank's balanced salt solution (HBSS) and 1% FBS). C5aR ligands (i.e., C5a, R&D Systems; Minneapolis, Minn.) are use to evaluate compound mediated inhibition of C5aR mediated migration. Other chemokines (i.e., SDF-1α; R&D Systems; Minneapolis, Minn.) are used as specificity controls. The lower chamber is loaded with 29 μl of chemokine (i.e., 0.03 nM C5a) and varying amounts of compound; the top chamber contains 100,000 U937 or neutrophil cells in 20 μl. The chambers are incubated 1.5 hours at 37° C., and the number of cells in the lower chamber quantified either by direct cell counts in five high powered fields per well or by the CyQuant assay (Molecular Probes), a fluorescent dye method that measures nucleic acid content and microscopic observation.

Sequence of C5aR (P21730 whole entry): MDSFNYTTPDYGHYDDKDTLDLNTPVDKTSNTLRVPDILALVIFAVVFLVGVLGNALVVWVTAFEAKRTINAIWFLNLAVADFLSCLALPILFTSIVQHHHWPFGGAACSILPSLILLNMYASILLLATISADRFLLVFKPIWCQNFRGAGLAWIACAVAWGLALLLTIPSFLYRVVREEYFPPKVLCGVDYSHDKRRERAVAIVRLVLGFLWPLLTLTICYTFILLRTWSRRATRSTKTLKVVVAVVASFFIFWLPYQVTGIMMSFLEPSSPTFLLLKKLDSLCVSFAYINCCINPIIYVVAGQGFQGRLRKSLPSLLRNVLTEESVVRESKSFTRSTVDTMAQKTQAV

Row | Compound | IC50
1 | CCc1cccc(CC)c1-n1nc2c(c1-c1ccc(F)c3[nH]ccc13)CN(CC(C)(C)C)C2(C)C [Compound 1.009] | 50 to 500 nM
2 | CCc1cccc(CC)c1-n1nc2c(c1-c1ccc(F)c3[nH]ccc13)CN(C(=O)C(C)(C)C(F)(F)F)C2(C)C [Compound 1.033] | 5 to 50 nM
3 | CCc1cccc(CC)c1-n1nc2c(c1-c1ccc(F)c3[nH]ccc13)CN(CC(C)(C)C(F)(F)F)C2(C)C [Compound 1.032] | < 5 nM
4 | Cc1cccc(C)c1-n1nc2c(c1-c1ccc3[nH]ccc3c1)CN(CC(C)(C)C)C2 [Compound 1.051] | ≥ 500 nM
